Reference: patent US11124553B2, “TDP-43 mitochondrial localization inhibitor for the treatment of neurogenerative disease” (Case Western Reserve University, priority 2016, dated 2021)
Where two headings read alike, the source gives them in different places. Ends that are not written are not given here.

Key:
[1] = continuous subcutaneous infusion
Procedure: Mice surgery/procedures were performed according to the NIH guidelines and were approved by the Institutional Animal Care and Use Committee (IACUC) at Case Western Reserve University. C57BL/6 non-transgenic wild type mice (NTG mice), Prnp-TARDBP mice (TDP-43 WT Tg mice) and Prnp-TARDBP*A315T mice (TDP-43 A315T Tg mice) were purchased from the Jackson Laboratory (Bar Harbor, Me.). Mice were infused subcutaneously with mini-osmotic pumps (Alzet Model 2004, Cupertino, Calif.; flow rate of 0.25 μl/hour). One day before implantation, mini-osmotic pumps were filled with 200 μl PBS containing cPM or PM1 peptides (0.5 mg/kg/Day) followed by pump incubation in PBS at 37 overnight according to the manufacturer's instructions. For surgery, male mice were anesthetized with avertin. A small incision was made at the back of mouse and mini-osmotic pump were implanted subcutaneously. After treatment, mice were deeply anesthetized with avertin and transcardially perfused with cold PBS and spinal cord and brain tissues were collected followed by fractionation, western blot or immunostaining.

[2] = 1.5 mg/kg/day s.c. infusion for 6 weeks; data not shown
cells = conditions: data not shown

Sequence: YGRKKRRQRRRAQFPGACGL [PM1]
- detection in mitochondrial compartments [1]: detected in all mitochondrial compartments
- reaching the central nervous system [1]: reached the central nervous system
- reaching the central nervous system [2]: reached the central nervous system

Sequence: YGRKKRRQRRRSKGFGFVRF [PM3]
- toxic effect on cells (cells): mild toxic effect
